Results as given in paper PMC10805311, “Pseudomonas aeruginosa two-component system CprRS regulates HigBA expression and bacterial cytotoxicity in response to LL-37 stress” (PLOS Pathogens, 2024).

Key:
cprS = assay: qRT-PCR, cprS transcription; type: cell-based, P. aeruginosa; details: oprL as normalizer
Method: (§1) Overnight bacterial cultures were subcultured in fresh LB medium to OD600 0.8 and the cells were collected by using Trizol. The cDNA was synthesized by using PrimeScript RT reagent Kit. 2 × SYBR qPCR Master Mix was used to perform qPCR assays. The reaction step was 2 × SYBR qPCR Master Mix (Without ROX) 10 μL, upstream Primer (10 μM) 0.4 μL, downstream Primer (10 μM) 0.4 μL, template cDNA 1 μg and ddH2O up to 20 μL. The qPCR procedure was set as: stage 1 (95°C 30 s, repeat once), stage 2 (95°C 10 s, 60°C 30 s, repeat for 40 times) and stage 3 (95°C 15 s, 60°C 1 min, 95°C 15 s, repeat 1 time). The oprL gene was used as a normalizer. The same method was used for mammalian cells, and 18 sRNA served as a normalizer.

higA = assay: Expression of higA; type: cell-based, P. aeruginosa; details: WT and ΔcprR or ΔcprS mutants
Method: as §1

cprR = assay: qRT-PCR, cprR transcription; type: cell-based, P. aeruginosa; details: oprL as normalizer
Method: as §1

[1] = biological target: CprS sensor domain (CprSSD, residues 28–163); assay: Microscale thermophoresis (MST), CprS sensor domain; type: binding, P. aeruginosa; details: 100 nM His-tag labelled CprSSD (residues 28–163), 16 doubling dilutions from 500 μM peptide, PBST buffer, 25°C 30 min, Monolith NT.115, repeated three times, read-out: Kd (CprSSD + LL-37)
Method: (§2) The E. coli BL21 (DE3) strains harboring pET22b-cprS and pET22b-cprR were cultured at 37°C in LB medium and suppled with 0.4 mM IPTG as the OD600 reached to 0.8. The cultures were incubated at 16°C for an additional 14 h and the cells were collected and resuspended in buffer A (20 mM tris-HCl (pH 8.0), 150 mM NaCl). The cells were lysed by ultrasound and centrifuged at 15, 000 rpm for 20 min at 4°C. Then the supernatant was applied to Ni-agarose resins and eluted with buffer containing 300 mM imidazole. As for full-length CprS, the supernatant needed to be extracted by 2% ELUGENT Detergent and flow 0.02% DDM for elution. The target proteins were further purified via AKTA purifier using buffer A and concentrated to 12 mg/mL.
(§3) The 100 nM CprS with His-tag was labeled with Monolith His-Tag Labelling Kit RED-tris-NTA 2nd Generation Kit and the cationic peptides used in this work were diluted with PBST buffer gradient from 0.5 mM [34]. The proteins and cationic peptide dilutions were mixed and incubated at 25°C for 30 min and detected on a Monolith NT.115 instrument. The data were analyzed by NanoTemper Analysis 1.2.20 software.

higB promoter = assay: β-Galactosidase reporter, higB promoter in P. aeruginosa; type: cell-based
P. aeruginosa ΔcprS = assay: Label-free quantitative proteomics of ΔcprS before and after LL-37; type: cell-based; details: PscE, PscH, PscJ, ExoT, PcrV, PcrH, PhzA2, PhzB2, PhzF1, FilF, PigA, HsbA; before vs after LL-37
Method: Protein was collected, reduced, and alkylated from WT, ΔcprS, ΔcprR, ΔcprSΔhigB, and ΔcprSΔhigB strains as reported. The total purified peptides were solubilized in 20 μL of 0.1% formic acid (FA, v/v) and the concentration was measured according to BCA assay.
About 2 μg samples were analyzed by orbitrap Fusion Lumos MS coupled online to an EASY-nLC 1200 system with a data-independent acquisition mode (DIA). The mobile phase used for the liquid chromatography consisted of buffer A (0.1% FA) and buffer B (80% acetonitrile, 0.1% FA). The peptides were separated using a 160-min nonlinear gradient consisting of 4–35% buffer B for 85 min, 35–100% buffer B for 60 min and 100% buffer B for 15 min at a flow rate of 300 nL min^−1. The acquired DIA data were analyzed by DIA-NN software against the protein database of P. aeruginosa PA14. Data processing was conducted using the software Perseus. Student’s t-test was used to assess the significance of differential expression of proteins (DEPs) between two groups. Proteins that have significance level of P < 0.05 and fold change >1.5 or <–1.5 were considered as DEPs.

higB = assay: qPCR, higB mRNA; type: cell-based, P. aeruginosa
Method: as §1

arnBCADTEF operon = assay: Expression of arnBCADTEF operon; type: cell-based, P. aeruginosa
Method: as §1

Raw264.7 macrophages = assay: LDH release cytotoxicity assay of infected macrophages; type: cell-based; details: MOI of 10, LL-37-treated WT P. aeruginosa
Method: The Raw264.7 cells were infected with suspended bacteria at a multiplicity of infection (MOI) of 10 in antibiotic-free DMEM medium. Following incubation, the supernatant was collected and the presence of LDH was measured using the LDH cytotoxicity assay kit. The baseline level of LDH release (0% LDH release) was determined using DMEM medium. Cells treated with LDH release agent C0017-1 were used as a positive control for total release (100% LDH release). The percentage of cytotoxicity was calculated according to the instructions provided by the manufacturer.

[2] = system: exsA and effectors exoS, exoT, and exoU; assay: Expression of T3SS genes exsA, exoS, exoT, exoU; type: cell-based, P. aeruginosa; details: combined mutations of CprRS components and higB gene
Method: as §1

[3] = system: RAW264.7 macrophages (TNF-α, IL-1β, IL-8, IL-12); assay: Pro-inflammatory cytokine levels in infected macrophages; type: cell-based; details: 18s RNA normalizer
Method: as §1

[4] = biological target: full-length CprS (CprSFL); assay: Microscale thermophoresis (MST), full-length CprS; type: binding, P. aeruginosa; details: 100 nM His-tag labelled CprSFL, 16 doubling dilutions from 500 μM peptide, PBST buffer, 25°C 30 min, Monolith NT.115, repeated three times, read-out: Kd (CprSFL + LL-37)
Method: as §2, §3

CarSR system = details: Vibrio cholerae; cited from earlier work
Source text: (§4) In the field of microbiology and immunology, the interaction between host antimicrobial peptides and pathogenic bacteria has been a subject of extensive research. The success of bacterial infections depends on a delicate balance of signals exchanged between microbes and hosts. Cationic antimicrobial peptides, including defensins such as α-defensins, β-defensins, and cathelicidin LL-37, are crucial components of innate host defense against bacterial infections. Numerous studies have shown that LL-37 acts as a shield between the host and the external environment, preventing bact ...

[5] = system: virulence sensor kinase CovS; details: group A streptococcus; cited from earlier work
Source text: as §4

pscDEFG operon = assay: Expression of pscDEFG operon; type: cell-based, P. aeruginosa
Method: as §1

[6] = system: CprRS as well as ParRS system; details: cited from earlier work
Source text: Pseudomonas aeruginosa is a notorious opportunistic pathogen known for its ability to evade host immune defenses, particularly in resisting antimicrobial peptides (AMPs). […] One notable feature is the abundance and diversity of two-component systems (TCS) in P. aeruginosa, which play a crucial role in regulating its response to host and environmental stimuli, including ...

LL-37
increase in cprS transcription compared to control without LL-37 (cprS): 2.5 fold | effect of LL-37 stimulation on expression of higA (higA): limited effects on the expression of higA | increase in cprR transcription compared to control without LL-37 (cprR): 2.2 fold | Kd [1]: 5.34 µM | induction of higB promoter by LL-37 (higB promoter; WT): significant positive induction activity on higB promoter | induction of higB promoter by LL-37 (higB promoter; ΔcprR and ΔcprS mutants): markedly reduced | expression of virulence proteins in ΔcprS upon stimulation with LL-37 (P. aeruginosa ΔcprS): significant decrease in the expression of several proteins directly involved in virulence processes | increase in higB mRNA levels upon LL-37 treatment (higB; WT strain): 8.79 fold | increase in higB mRNA levels upon LL-37 treatment (higB; ΔcprR mutant): 2.12 fold | increase in higB mRNA levels upon LL-37 treatment (higB; ΔcprS mutant): 2.74 fold | expression of arnBCADTEF operon under LL-37 (arnBCADTEF operon; WT strain): markedly induced | expression of arnBCADTEF operon under LL-37 (arnBCADTEF operon; ΔcprR and ΔcprS mutants): this induction was not observed | cytotoxicity of LL-37-treated WT strains compared to untreated group (Raw264.7 macrophages): increased cytotoxicity | upregulation of T3SS in response to LL-37 stimulation [2]: greatly attenuated | effect of LL-37 pretreatment on inhibition of pro-inflammatory cytokines ([3]; macrophages infected with WT strain pretreated with LL-37): enhanced the ability of the WT strain to effectively inhibit the activation of pro-inflammatory cytokines | effect of LL-37 pretreatment on inhibition of pro-inflammatory cytokines ([3]; macrophages infected with ΔcprS and ΔcprR strains): largely absent | Kd [4]: 1.41 µM | sensing by CarSR (CarSR system): sense human enteric α-defensin 5 and LL-37 to promote bacterial pathogenicity | activation of CovS [5]: activated by LL-37 | expression of pscDEFG operon under LL-37 (pscDEFG operon; WT strain): notably induced | expression of pscDEFG operon under LL-37 (pscDEFG operon; mutants): no such induction was observed

dynorphin
stimulation of CprRS as well as ParRS by dynorphin [6]: increased virulence factor production and adaptive resistance
